Data taken from patent publication US7217831B2 (priority 2001, dated 2007).

How the values were obtained:
[1] = tested on: Helicoverpa armigera larvae; test: Glasshouse trial on geranium seedlings, racemic and isomeric C1 (Example 20); assay type: in vivo; settings: Trial 1; 25 mM dose sprayed on geranium
[2] = tested on: Helicoverpa spp. larvae; test: Field trial, commercial cotton crop, Kununurra (Example 19); assay type: in vivo, Helicoverpa armigera; settings: C1 plus EDTA 1.0 kg/ha each

Structure (SMILES) | Estimated leaf damage (%) at 7 DAA [1] | Mean number of larvae/leaf at 7 DAA [1] | Mean number TLVA*/10 Terminals, 3 DAA ([2]; 3 days after application, C1 2.0 kg/ha, EDTA 2.0 kg/ha) | efficacy against Helicoverpa spp. infesting cotton (in words) ([2]; EDTA alone 2.0 kg/ha) | Mean number TLVA*/10 Terminals, −1 DAA ([2]; pre-application count, C1 2.0 kg/ha, EDTA 2.0 kg/ha)
CC(C)[C@H](NCP(=O)(O)O)C(=O)O [D-C1, N-phosphonomethyl valine] | 55% | 3.5 |  |  | 
CC(C)[C@H](NCP(=O)(O)O)C(=O)O [L-C1, N-phosphonomethyl valine] | 35% | 2.3 |  |  | 
O=C(O)CN(CCN(CC(=O)O)CC(=O)O)CC(=O)O [EDTA, ethylenediaminetetraacetic acid] |  |  | 6.0 | no apparent influence on larval survival | 0.0
